Results published in patent publication US9889135B2, “Companion diagnostic for CDK4 inhibitors” (Memorial Sloan-Kettering Cancer Center, priority 2013, dated 2018).

Columns and labels:
[1] = system: MDM2 transcripts in WD/DDLS cell lines; test: MDM2 transcript levels by qPCR; assay type: cell-based, human; conditions: two days; each cell line
[2] = system: HAUSP in WD/DDLS cell lines; test: HAUSP levels by immunoblot; assay type: cell-based, human; conditions: 2 days of treatment
Method: FIG. 25A-D. Turnover of MDM2 is regulated post-translationally. […] Extracts were prepared and MDM2 was immunoprecipitated and the presence of HAUSP and MDM2 in the precipitates were determined by immunoblot. IgG was used as a non-specific antibody control for the immunoprecipitation. […] Tubulin is a loading control. HAUSP levels were reduced with shRNA in the indicated cells lines and the effect on protein expression (C) and the accumulation of senescence-associated (3-galactosidase positive cells measured (D). The mean and standard deviation was compiled from at least two independent experiments with each cell line and a representative immunoblot is shown.

## CC(=O)c1c(C)c2cnc(Nc3ccc(N4CCNCC4)cn3)nc2n(C2CCCC2)c1=O [PD0332991]
[1]
  MDM2 transcripts: modestly reduced
[2]
  HAUSP levels: did not change
